Test results published in PubChem BioAssay (NCI).
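In this assay, cells in 96-well plates receive the compound at five concentrations for 48 hours. Endpoints are linearly interpolated between the surrounding concentrations. GI50 is the concentration that inhibits growth by half. The concentration for full growth arrest is given as TGI.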

Columns and labels:
Test in all cases: DTP human tumour cell line panel, 48 h
EKVX NSCLC = test system: EKVX NSCLC
MOLT-4 leukemia = test system: MOLT-4 leukemia
A498 renal = test system: A498 renal
786-0 renal = test system: 786-0 renal
ACHN renal = test system: ACHN renal
HCT-15 colon = test system: HCT-15 colon
SN12C renal = test system: SN12C renal
UACC-257 melanoma = test system: UACC-257 melanoma
SNB-75 CNS = test system: SNB-75 CNS
RXF 393 renal = test system: RXF 393 renal
OVCAR-5 ovarian = test system: OVCAR-5 ovarian
TK-10 renal = test system: TK-10 renal
HS 578T breast = test system: HS 578T breast
SK-OV-3 ovarian = test system: SK-OV-3 ovarian
U251 CNS = test system: U251 CNS
OVCAR-8 ovarian = test system: OVCAR-8 ovarian
SNB-19 CNS = test system: SNB-19 CNS
UACC-62 melanoma = test system: UACC-62 melanoma
HCT-116 colon = test system: HCT-116 colon
NCI-H522 lung = test system: NCI-H522 lung
NCI-H460 lung = test system: NCI-H460 lung
KM12 colon = test system: KM12 colon
COLO 205 colon = test system: COLO 205 colon
MDA-MB-435 = test system: MDA-MB-435
SF-539 CNS = test system: SF-539 CNS
HL-60(TB) leukemia = test system: HL-60(TB) leukemia
HT29 colon = test system: HT29 colon
PC-3 prostate = test system: PC-3 prostate
RPMI-8226 leukemia = test system: RPMI-8226 leukemia
SK-MEL-5 melanoma = test system: SK-MEL-5 melanoma
MDA-MB-231 breast = test system: MDA-MB-231 breast
T-47D breast = test system: T-47D breast
A549 NSCLC = test system: A549 NSCLC
OVCAR-4 ovarian = test system: OVCAR-4 ovarian
SK-MEL-28 melanoma = test system: SK-MEL-28 melanoma
BT-549 breast = test system: BT-549 breast
HCC-2998 colon = test system: HCC-2998 colon
CCRF-CEM leukemia = test system: CCRF-CEM leukemia
MCF7 breast = test system: MCF7 breast
SW-620 colon = test system: SW-620 colon
HOP-92 NSCLC = test system: HOP-92 NSCLC
SF-295 CNS = test system: SF-295 CNS
M14 melanoma = test system: M14 melanoma
HOP-62 NSCLC = test system: HOP-62 NSCLC
SK-MEL-2 melanoma = test system: SK-MEL-2 melanoma
NCI/ADR-RES ovarian = test system: NCI/ADR-RES ovarian
SF-268 CNS = test system: SF-268 CNS
OVCAR-3 ovarian = test system: OVCAR-3 ovarian
UO-31 renal = test system: UO-31 renal
IGROV1 ovarian = test system: IGROV1 ovarian
NCI-H226 lung = test system: NCI-H226 lung
K-562 leukemia = test system: K-562 leukemia
NCI-H23 lung = test system: NCI-H23 lung
CAKI-1 renal = test system: CAKI-1 renal
DU-145 prostate = test system: DU-145 prostate
LOX IMVI melanoma = test system: LOX IMVI melanoma
MALME-3M melanoma = test system: MALME-3M melanoma
SR leukemia = test system: SR leukemia

COc1ccc2c(c1)CCN=C2c1ccccc1CCCCl
TGI (EKVX NSCLC): > 100 µM
TGI (MOLT-4 leukemia): 42.4 µM
TGI (A498 renal): > 100 µM
TGI (786-0 renal): > 100 µM
TGI (ACHN renal): 64.9 µM
TGI (HCT-15 colon): 74.1 µM
TGI (SN12C renal): 54.4 µM
TGI (UACC-257 melanoma): > 100 µM
TGI (SNB-75 CNS): > 100 µM
TGI (RXF 393 renal): 82.1 µM
TGI (OVCAR-5 ovarian): > 100 µM
TGI (TK-10 renal): > 100 µM
TGI (HS 578T breast): 96.5 µM
TGI (SK-OV-3 ovarian): > 100 µM
TGI (U251 CNS): > 100 µM
TGI (OVCAR-8 ovarian): > 100 µM
TGI (SNB-19 CNS): 40.1 µM
TGI (UACC-62 melanoma): > 100 µM
TGI (HCT-116 colon): 61.3 µM
TGI (NCI-H522 lung): 52.5 µM
TGI (NCI-H460 lung): 28.5 µM
TGI (KM12 colon): > 100 µM
TGI (COLO 205 colon): 23.4 µM
TGI (MDA-MB-435): > 100 µM
TGI (SF-539 CNS): 45.6 µM
TGI (HL-60(TB) leukemia): > 100 µM
TGI (HT29 colon): 58.2 µM
TGI (PC-3 prostate): > 100 µM
TGI (RPMI-8226 leukemia): 11.8 µM
TGI (SK-MEL-5 melanoma): 13.3 µM
TGI (MDA-MB-231 breast): 63.7 µM
TGI (T-47D breast): > 100 µM
TGI (A549 NSCLC): > 100 µM
TGI (OVCAR-4 ovarian): 52.2 µM
TGI (SK-MEL-28 melanoma): > 100 µM
TGI (BT-549 breast): > 100 µM
TGI (HCC-2998 colon): 24.9 µM
TGI (CCRF-CEM leukemia): > 100 µM
TGI (MCF7 breast): > 100 µM
TGI (SW-620 colon): > 100 µM
TGI (HOP-92 NSCLC): > 100 µM
TGI (SF-295 CNS): > 100 µM
TGI (M14 melanoma): > 100 µM
TGI (HOP-62 NSCLC): > 100 µM
TGI (SK-MEL-2 melanoma): > 100 µM
TGI (NCI/ADR-RES ovarian): > 100 µM
TGI (SF-268 CNS): > 100 µM
TGI (OVCAR-3 ovarian): > 100 µM
TGI (UO-31 renal): 26.7 µM
TGI (IGROV1 ovarian): > 100 µM
TGI (NCI-H226 lung): > 100 µM
TGI (K-562 leukemia): > 100 µM
TGI (NCI-H23 lung): 39.8 µM
TGI (CAKI-1 renal): 70.2 µM
TGI (DU-145 prostate): > 100 µM

S=C1SC2=Nc3ccccc3CN2C2=NCCN12
GI50 (EKVX NSCLC): > 100 µM
TGI (EKVX NSCLC): > 100 µM
GI50 (MOLT-4 leukemia): 39.9 µM
TGI (MOLT-4 leukemia): > 100 µM
GI50 (LOX IMVI melanoma): 25.9 µM
TGI (LOX IMVI melanoma): 83.2 µM
GI50 (786-0 renal): > 100 µM
TGI (786-0 renal): > 100 µM
GI50 (ACHN renal): > 100 µM
TGI (ACHN renal): > 100 µM
GI50 (HCT-15 colon): 33 µM
TGI (HCT-15 colon): > 100 µM
GI50 (SN12C renal): > 100 µM
TGI (SN12C renal): > 100 µM
GI50 (UACC-257 melanoma): > 100 µM
TGI (UACC-257 melanoma): > 100 µM
GI50 (SNB-75 CNS): 17.4 µM
TGI (SNB-75 CNS): > 100 µM
GI50 (RXF 393 renal): 23.3 µM
TGI (RXF 393 renal): 80.4 µM
GI50 (OVCAR-5 ovarian): > 100 µM
TGI (OVCAR-5 ovarian): > 100 µM
GI50 (TK-10 renal): > 100 µM
TGI (TK-10 renal): > 100 µM
GI50 (SK-OV-3 ovarian): > 100 µM
TGI (SK-OV-3 ovarian): > 100 µM
GI50 (MALME-3M melanoma): 49.6 µM
TGI (MALME-3M melanoma): > 100 µM
GI50 (U251 CNS): 39.2 µM
TGI (U251 CNS): > 100 µM
GI50 (OVCAR-8 ovarian): > 100 µM
TGI (OVCAR-8 ovarian): > 100 µM
GI50 (SNB-19 CNS): > 100 µM
TGI (SNB-19 CNS): > 100 µM
GI50 (UACC-62 melanoma): 72.5 µM
TGI (UACC-62 melanoma): > 100 µM
GI50 (HCT-116 colon): 52.8 µM
TGI (HCT-116 colon): > 100 µM
GI50 (NCI-H522 lung): 27.7 µM
TGI (NCI-H522 lung): > 100 µM
GI50 (NCI-H460 lung): > 100 µM
TGI (NCI-H460 lung): > 100 µM
GI50 (KM12 colon): > 100 µM
TGI (KM12 colon): > 100 µM
GI50 (COLO 205 colon): 54.4 µM
TGI (COLO 205 colon): > 100 µM
GI50 (MDA-MB-435): > 100 µM
TGI (MDA-MB-435): > 100 µM
GI50 (SF-539 CNS): > 100 µM
TGI (SF-539 CNS): > 100 µM
GI50 (HL-60(TB) leukemia): 89.2 µM
TGI (HL-60(TB) leukemia): > 100 µM
GI50 (HT29 colon): 34.7 µM
TGI (HT29 colon): > 100 µM
GI50 (PC-3 prostate): > 100 µM
TGI (PC-3 prostate): > 100 µM
GI50 (RPMI-8226 leukemia): > 100 µM
TGI (RPMI-8226 leukemia): > 100 µM
GI50 (SK-MEL-5 melanoma): 14.8 µM
TGI (SK-MEL-5 melanoma): 55.5 µM
GI50 (MDA-MB-231 breast): > 100 µM
TGI (MDA-MB-231 breast): > 100 µM
GI50 (T-47D breast): 78.5 µM
TGI (T-47D breast): > 100 µM
GI50 (A549 NSCLC): > 100 µM
TGI (A549 NSCLC): > 100 µM
GI50 (OVCAR-4 ovarian): > 100 µM
TGI (OVCAR-4 ovarian): > 100 µM
GI50 (SK-MEL-28 melanoma): > 100 µM
TGI (SK-MEL-28 melanoma): > 100 µM
GI50 (BT-549 breast): 99.9 µM
TGI (BT-549 breast): > 100 µM
GI50 (HCC-2998 colon): > 100 µM
TGI (HCC-2998 colon): > 100 µM
GI50 (CCRF-CEM leukemia): 36.7 µM
TGI (CCRF-CEM leukemia): > 100 µM
GI50 (MCF7 breast): 51.5 µM
TGI (MCF7 breast): > 100 µM
GI50 (SW-620 colon): 39.8 µM
TGI (SW-620 colon): > 100 µM
GI50 (HOP-92 NSCLC): > 100 µM
TGI (HOP-92 NSCLC): > 100 µM
GI50 (SF-295 CNS): 83.5 µM
TGI (SF-295 CNS): > 100 µM
GI50 (M14 melanoma): > 100 µM
TGI (M14 melanoma): > 100 µM
GI50 (HOP-62 NSCLC): > 100 µM
TGI (HOP-62 NSCLC): > 100 µM
GI50 (SR leukemia): 18.7 µM
TGI (SR leukemia): 55.7 µM
GI50 (NCI/ADR-RES ovarian): > 100 µM
TGI (NCI/ADR-RES ovarian): > 100 µM
GI50 (SF-268 CNS): > 100 µM
TGI (SF-268 CNS): > 100 µM
GI50 (OVCAR-3 ovarian): 80.8 µM
TGI (OVCAR-3 ovarian): > 100 µM
GI50 (UO-31 renal): > 100 µM
TGI (UO-31 renal): > 100 µM
GI50 (IGROV1 ovarian): 7.88 µM
TGI (IGROV1 ovarian): > 100 µM
GI50 (NCI-H226 lung): > 100 µM
TGI (NCI-H226 lung): > 100 µM
GI50 (K-562 leukemia): 32.8 µM
TGI (K-562 leukemia): > 100 µM
GI50 (NCI-H23 lung): > 100 µM
TGI (NCI-H23 lung): > 100 µM
GI50 (CAKI-1 renal): > 100 µM
TGI (CAKI-1 renal): > 100 µM
GI50 (DU-145 prostate): > 100 µM
TGI (DU-145 prostate): > 100 µM
